# Source: patent US7332495B2 (priority 2002, dated 2008)
# How the values were obtained:
# [1] = test system: rats; experiment: Precipitated withdrawal test in rats; format: in vivo; conditions: for Abstinence syndrome (IV ± SD): 14 days, Narcan i.p. 4 mg/kg
# Procedure: 48 rats were divided into 4 groups (12 for each group, ? fifty-fifty). Morphines IV-12-1 (75 mg/Kg), IV-12-2 (100 mg/Kg) and saline, was administered respectively using progressive dose increase for 14 days and 3 times per day. On the 15th day, Narcan is injected (i.p. 4 mg/kg) to precipitate withdrawal. The withdrawal syndrome was observed and the rats wre weighed at 30, 60 and 120 minutes after the injection respectively.
# [2] = test system: rats; experiment: Defervescence in rats given Brewers' yeast; format: in vivo; conditions: p.o., 60 mg/kg, Brewers' yeast s.c. 7%
# [3] = test system: rats; experiment: Conditional position preference in rats
# Description: A commercially available device for testing (Med Associates Inc.) was used. Measurements were automatically recorded by a computer.
# The data are indicated by means of […], t-test was employed to compare the data in different groups. The rats were divided randomly into groups by weight, 12 for each group. They were positive control groups. […] The experiments were divided into stages of accommodation, training and test. Accommodation: Open the doors between black box and grey box and the door between white box and grey box. put the rats in from the grey box; let them run free in the training box for 15 minutes for 4 days. Training: The white box is with medicine while the black one is without it. The period training is 10 days, the first day with the medicine while the second day not; the third day with the medicine while the fourth day not, so on and so forth. When carrying out the training with medicine, 15 minutes after the rat is administrated (i.g.) with medicine, it is put into the white box for 30 minutes. When the training is without medicine, 15 minutes after the rat is administrated (i.g.) with saline, it is put into the black box for 30 minutes. Test: On the 11th day, the rat is put into the training box, with the door open. The time the rat stays in each box, and the number of time it enters during 15 minutes were determined, and the percentage of the time staying in the white box to the time together in white box and black box is calculated (Table 12).
# [4] = test system: rat; experiment: Rat tail flick model (focused radiant heat); format: in vivo; conditions: po, read-out: Analgesia ED50
# [5] = test system: rat; experiment: Rat tail flick model (focused radiant heat); format: in vivo
# Procedure: A 8.75 mm-projecting lamp (12 v, 50 w) was used to give out focused radiant heat. The terminal 3 cm of the tail is exposed to the heat. The intensity of the focused radiant heat is regulated by a transformer to ensure that the time required to elicit a tail flick response is within 3-5 seconds. The rat's pain threshold is pre-tested for 2-3 times; and only animals with stable reactions were used in the pharmaceutical test. The test substance is taken orally 20 mg/kg. The number of rats whose increase in time for eliciting a tail flick response is by 100% or more at the peak of the drug action (30-45 minutes after administration) is used to calculate analgesic effect.
# Two species of animals (mice and rats) and four types of pain testing models (i.p. 0.7% acetic acid, s.c. 5% formalin, hot plate 55° C., focused radiant heat) were used.
# [6] = Summary of all three algogenic models; format: in vivo; conditions: in words
# Description: All the compounds mentioned above have profound for further value development.
# [7] = Acute toxicity in mice; conditions: mouse, in vivo, po, Bliss method
# [8] = test system: S. typhimurium TA97, TA98, TA100 and TA102; experiment: Bacterial reverse-mutation assay (Ames); format: cell-based; conditions: for Effect on bacterial growth: 5000 μg/plate
# Description: Strains: S. typhimurium TA97, TA98, TA100 and TA102
# Results: The assay included two parts without S9 and with S9. […] For all tested doses, there was no significant increase of revertants. Ames test for of IV-12 is negative.
compound,measurement,setting,value
"Nc1ccc(CN2CCN(CC(=O)c3ccccc3)CC2)cc1 [IV-12, N^1-(4-aminobenzyl)-N^4-phenacyl piperazine]",Percent of the lost weight (IV ± SD),"[1]; IV-12-1 (75 mg/Kg), 30 min after Narcan",−1.8 ± 1.4
same,Percent of the lost weight (IV ± SD),"[1]; IV-12-1 (75 mg/Kg), 60 min after Narcan",−2.6 ± 1.5
same,Percent of the lost weight (IV ± SD),"[1]; IV-12-1 (75 mg/Kg), 120 min after Narcan",−3.1 ± 1.5
same,Abstinence syndrome (IV ± SD),[1]; IV-12-1 (75 mg/Kg),4.7 ± 3.9
same,Percent of the lost weight (IV ± SD),"[1]; IV-12-2 (100 mg/Kg), 30 min after Narcan",−3.1 ± 1.3
same,Percent of the lost weight (IV ± SD),"[1]; IV-12-2 (100 mg/Kg), 60 min after Narcan",−3.9 ± 1.4
same,Percent of the lost weight (IV ± SD),"[1]; IV-12-2 (100 mg/Kg), 120 min after Narcan",−4.2 ± 1.5
same,Abstinence syndrome (IV ± SD),[1]; IV-12-2 (100 mg/Kg),5.3 ± 2.1
same,Defervescence effect,[2],no defervescence effect
same,Percent in the medicine box (%),[3]; 10 mg/kg i.g.,46.1 ± 16.3%
same,Percent in the medicine box (%),[3]; 20 mg/kg i.g.,51.9 ± 9.8%
same,Percent in the medicine box (%),[3]; 50 mg/kg i.g.,62.9 ± 5.4 %
same,ED50,[4],162 mg/kg
same,Increase (tail flick) (%),"[5]; 20 mg/kg, Table 5 summary",34%
same,change in vivo at 20 mg/kg,"[5]; Rattus norvegicus, po, orally 20 mg/kg, read-out: increase (%) of tail flick time",34%
same,After (s) tail flick time,"[5]; orally 20 mg/kg, 30-45 minutes after administration",10.05 s
same,Analgesic effect on all three algogenic models,[6],powerful analgesic effects
same,Sedative effect on all three algogenic models,[6],rather significant sedative effect
same,LD50,[7],309 mg/kg
same,Effect on bacterial growth,"[8]; with S9, TA97",inhibitory effect
same,Effect on bacterial growth,"[8]; without S9, TA98",inhibitory effect
same,Ames test,"[8]; without S9 and with S9, TA97, TA98, TA100, TA102",negative
